Legend:
ABCF2 [1] = assay: ABCF2 mRNA expression (real-time PCR); format: cell-based, human; conditions: A2780/DOX, 10 µM, 48 h, without doxorubicin
ABCA3 = ABCA3 mRNA expression (real-time PCR); format: cell-based, human; conditions: A2780/DOX
Description: (§1) The A2780/DOX cell line was seeded into 5 cm Petri dishes with DMEM medium at 1 × 10^5 cell/mL. After 24 h, the dishes were washed with PBS and new DMEM medium supplemented with doxorubicin (at concentration equal to IC25) and samples (10 µM) were added. After 48 h of treatment, the cells were washed with PBS and harvested using the standard trypsin-EDTA procedure. The harvested cells were centrifuged (3200× g; 10 min, 4 °C). The supernatant was discarded, and the pellets were washed with 1.5 mL of cooled PBS (5400× g; 10 min, 4 °C). The washing step was repeated with 1 mL of PBS and the cells were centrifuged again (10,000× g; 3 min, 4 °C). Afterwards, the pellets were resuspended in 1 mL of Trizol (Invitrogen, Carlsbad, CA, USA) and transferred into pre-cooled RNase-free microfuge tubes. The samples were stored at −80 °C.
(§2) A Quant-iT RiboGreen RNA Assay Kit (Invitrogen) was used to determine the RNA concentration using the Infinite M200 plate reader (Tecan, Männedor, Switzerland). The cDNA was prepared from 0.5 µg of total RNA using a RevertAid First Strand Synthesis cDNA Kit (MBI Fermentas, Vilnius, Lithuania). The amplification of the ubiquitin C gene fragment was used to determine the quality of cDNA.
(§3) The experiment was performed using the ViiA7 Real-Time polymerase chain reaction (PCR) System (Life Technologies, Camarillo, CA, USA) with a 384-well block. Before quantitative real-time PCR, the master mix was prepared by mixing 2 µL of 8 × diluted cDNA, 1.75 µL of RNase free water, 1 µL of 5 × HotFIREPol Probe quantitative PCR Mix Plus (Solis Biodyne, Tartu, Estonia) and 0.25 µL of specific 20 × TaqMan Gene Expression Assay (Life Technologies), giving 5 µL of final reaction volume. Cycling parameters were: initial hold at 50 °C for 2 min and denaturation at 95 °C for 10 min, followed by 45 cycles consisting of denaturation at 95 °C for 15 s and annealing/extension at 60 °C for 1 min. After each extension phase, the fluorescence values were acquired. Duplicate samples were used for measurement and samples with a standard deviation of duplicates > 1.0 cycle threshold (Ct) were re-analyzed. The real time PCR procedure was maintained according to MIQE (Minimum information for publication of quantitative real-time PCR experiments) guidelines. The software REST 2009 (Qiagen, Hilden, Germany) served to compare relative transcript levels of genes in the cell line.

ABCG1 = ABCG1 mRNA expression (real-time PCR); format: cell-based, human; conditions: A2780/DOX
Description: as §1, §2, §3

ABCF1 = ABCF1 mRNA expression (real-time PCR); format: cell-based, human; conditions: A2780/DOX
Description: as §1, §2, §3

ABCF2 [2] = assay: ABCF2 mRNA expression (real-time PCR); format: cell-based, human; conditions: A2780/DOX, 10 µM combined with doxorubicin at IC25, 48 h
Description: as §1, §2, §3

ABCB2 = ABCB2 mRNA expression (real-time PCR); format: cell-based, human; conditions: A2780/DOX, 10 µM, 48 h, without doxorubicin
ABCB9 = ABCB9 mRNA expression (real-time PCR); format: cell-based, human; conditions: A2780/DOX, 10 µM, 48 h, without doxorubicin
ABCA2 = ABCA2 mRNA expression (real-time PCR); format: cell-based, human; conditions: 10 µM, 48 h, without doxorubicin; for ABCA2 Expression Difference / ABCA2 Treated vs. Untreated: A2780/DOX
[3] = Viability of A2780/DOX cells (resazurin); conditions: human
Description: To determine the NO production, the medium was mixed with Griess reagent (0.04 g/mL, prepared in deionized water) in a 1:1 ratio. After 15 min, absorbance was recorded at 540 nm. To determine cell viability, the resazurin solution (0.03 mg/mL in PBS) was added to the cells. After 2 h of incubation, fluorescence was recorded (560/590 nm, ex./em.).
A multidrug resistant ovarian sub-line resistant to doxorubicin (A2780/DOX, Sigma-Aldrich) was cultivated in DMEM medium with 10% FBS and 1 × antibiotic antimycotic solution. Every other passage, doxorubicin at the final concentration of 0.1 µM was added to the culture medium to maintain the resistance of the cell line. To perform experiments, the cells were seeded at 1 × 10^5 cell/mL into the wells of a 96-well plate and incubated for 24 h. Afterwards, the cells were washed with PBS and fresh DMEM medium with tested compounds at 10, 20 and 30 µM were added to each well, except for the control wells. Subsequently, the cells were exposed to increasing concentrations of doxorubicin (0.6–20 µM) for 72 h. After incubation, the resazurin assay was performed as described above. The IC50 of doxorubicin was calculated for both the control and the samples and the fold change was counted up. […] The fold change lower than 1 means an antagonistic effect. (1) FOLD CHANGE=IC50 value of DOX cells treated with chemotherapeutic /IC50 value of DOX cells treated with chemotherapeutic and compound

ABCB7 = ABCB7 mRNA expression (real-time PCR); format: cell-based, human; conditions: A2780/DOX, 10 µM, 48 h, without doxorubicin
Description: as §1, with “After 24 h, the dishes were washed with PBS and new DMEM medium supplemented with doxorubicin (at concentration equal to IC25) and samples (10 µM) were added.” left out
(§4) A Quant-iT RiboGreen RNA Assay Kit (Invitrogen) was used to determine the RNA concentration using the Infinite M200 plate reader (Tecan, Männedor, Switzerland). […]
(§5) The experiment was performed using the ViiA7 Real-Time polymerase chain reaction (PCR) System (Life Technologies, Camarillo, CA, USA) with a 384-well block. Before quantitative real-time PCR, the master mix was prepared by mixing 2 µL of 8 × diluted cDNA, 1.75 µL of RNase free water, 1 µL of 5 × HotFIREPol Probe quantitative PCR Mix Plus (Solis Biodyne, Tartu, Estonia) and 0.25 µL of specific 20 × TaqMan Gene Expression Assay (Life Technologies), giving 5 µL of final reaction volume. […] After each extension phase, the fluorescence values were acquired. […]

ABCC5 = ABCC5 mRNA expression (real-time PCR); format: cell-based, human; conditions: A2780/DOX, 10 µM, 48 h, without doxorubicin
[4] = parameters: method as in PMID 15465345, PMID 19138735; conditions: cited from earlier work
ABCE1 = ABCE1 mRNA expression (real-time PCR); format: cell-based, human; conditions: A2780/DOX, 10 µM, 48 h, without doxorubicin
Description: as §1, §2, §3

ABC superfamily genes = assay: Expression profile of ABC superfamily genes (real-time PCR); format: cell-based, human; conditions: 10 µM, 48 h, without doxorubicin
Description: as §1, with “After 24 h, the dishes were washed with PBS and new DMEM medium supplemented with doxorubicin (at concentration equal to IC25) and samples (10 µM) were added.” left out
as §4, §5

ABCA7 = ABCA7 mRNA expression (real-time PCR); format: cell-based, human; conditions: A2780/DOX, 10 µM, 48 h, without doxorubicin
Description: as §1, with “After 24 h, the dishes were washed with PBS and new DMEM medium supplemented with doxorubicin (at concentration equal to IC25) and samples (10 µM) were added.” left out
as §4, §5

ABCD4 = ABCD4 mRNA expression (real-time PCR); format: cell-based, human; conditions: A2780/DOX, 10 µM, 48 h, without doxorubicin
Description: as §1, §2
as §5, with “acquired. Duplicate samples were used for measurement and samples with a standard deviation of duplicates > 1.0 cycle threshold (Ct) were re-analyzed. The real time PCR procedure was maintained according to MIQE (Minimum information for publication of quantitative real-time PCR experiments) guidelines.” for “acquired.”

ABCB8 = ABCB8 mRNA expression (real-time PCR); format: cell-based, human; conditions: A2780/DOX, 10 µM, 48 h, without doxorubicin
Description: as §1, with “After 24 h, the dishes were washed with PBS and new DMEM medium supplemented with doxorubicin (at concentration equal to IC25) and samples (10 µM) were added.” left out
as §2
as §5, with “acquired. Duplicate samples were used for measurement and samples with a standard deviation of duplicates > 1.0 cycle threshold (Ct) were re-analyzed. The real time PCR procedure was maintained according to MIQE (Minimum information for publication of quantitative real-time PCR experiments) guidelines.” for “acquired.”

ABCB3 = ABCB3 mRNA expression (real-time PCR); format: cell-based, human; conditions: A2780/DOX, 10 µM, 48 h, without doxorubicin
Description: as §1, with “After 24 h, the dishes were washed with PBS and new DMEM medium supplemented with doxorubicin (at concentration equal to IC25) and samples (10 µM) were added.” left out
as §4, §5

[5] = 10 µM combined with doxorubicin at IC25, 48 h
[6] = 10 µM, 48 h, without doxorubicin

Row | SMILES | ABCF2 Expression Difference (ABCF2 [1]) | ABCA3 Expression Difference (ABCA3; [5]) | ABCG1 Expression Difference (ABCG1; [5]) | ABCF1 Expression Difference (ABCF1; [5]) | ABCF2 Expression Difference (ABCF2 [2]) | ABCB2 Expression Difference (ABCB2) | ABCB9 Expression Difference (ABCB9) | downregulation of ABCA2 expression (ABCA2) [%] | ABCA2 Expression Difference (ABCA2) | ABCA2 Treated vs. Untreated (ABCA2) | ABCB7 Expression Difference (ABCB7) | ABCF1 Expression Difference (ABCF1; [6]) | ABCF1 Treated vs. Untreated (ABCF1; [6]) | ABCC5 Expression Difference (ABCC5) | ABCE1 Expression Difference (ABCE1) | viability at 20 µM [3] [%] | ABCG1 Expression Difference (ABCG1; [6]) | ABCD4 Expression Difference (ABCD4) | ABCB8 Expression Difference (ABCB8) | further results
1 | COc1cc([C@H]2Oc3cc(-c4oc5cc(O)cc(O)c5c(=O)c4O)ccc3O[C@@H]2CO)ccc1O [Dehydrosilybin A, 2,3-dehydrosilybin A] | 1.198 | 1.042 | 2.714 | 0.920 | 1.044 | 1.905 | 1.317 | 22 | 0.778 | DOWN | – | – | – | – | – | – | – | – | – | viability at 50 µM [3]: < 80%
2 | COc1cc(C2Oc3cc(-c4oc5cc(O)cc(O)c5c(=O)c4O)ccc3OC2CO)ccc1O (stereo not shown) [Dehydrosilybin AB, 2,3-dehydrosilybin] | 1.418 | 0.943 | 1.826 | 0.923 | 1.343 | 2.341 | 1.669 | – | – | – | 1.463 | 0.322 | DOWN | 1.519 | 1.408 | < 80 | – | – | – | radical scavenging compared to silybin [4]: 25 fold
3 | COc1cc([C@@H]2Oc3cc(-c4oc5cc(O)cc(O)c5c(=O)c4O)ccc3O[C@H]2CO)ccc1O [Dehydrosilybin B, 2,3-dehydrosilybin B] | 1.334 | 1.060 | 2.931 | 0.784 | 1.226 | 1.625 | – | 11 | 0.891 | DOWN | – | – | – | – | – | < 80 | – | – | – | –
4 | COc1cc([C@H]2Oc3cc([C@H]4Oc5cc(O)cc(O)c5C(=O)[C@@H]4O)ccc3O[C@@H]2CO)ccc1O [Silybin A, silybin A] | – | – | – | – | 1.242 | 1.141 | – | – | 1.078 | – | – | – | – | – | – | – | – | – | – | –
5 | COc1cc(C2Oc3cc([C@H]4Oc5cc(O)cc(O)c5C(=O)[C@@H]4O)ccc3OC2CO)ccc1O (stereo partly shown) [Silybin AB, silybin] | 1.326 | 1.142 | 1.559 | 0.137 | 1.463 | – | 2.091 | – | 2.583 | – | 1.803 | – | – | 1.819 | 1.558 | – | 2.416 | 1.882 | 1.503 | number of ABC genes with increased expression (ABC superfamily genes): 20; ABCF1 Treated vs. Untreated (ABCF1; [5]): DOWN; ABCA7 Expression Difference (ABCA7): 2.704
6 | COc1cc([C@@H]2Oc3cc([C@H]4Oc5cc(O)cc(O)c5C(=O)[C@@H]4O)ccc3O[C@H]2CO)ccc1O [Silybin B, silybin B] | 0.307 | 0.794 | – | – | – | – | 0.392 | – | 0.520 | DOWN | – | 0.260 | DOWN | 0.365 | 0.391 | – | 0.303 | 0.370 | 0.413 | ABCF2 Treated vs. Untreated (ABCF2 [1]): DOWN; ABCA3 Treated vs. Untreated (ABCA3; [5]): DOWN; ABCA3 Expression Difference (ABCA3; [6]): 0.228; ABCA3 Treated vs. Untreated (ABCA3; [6]): DOWN; number of ABC genes with altered expression (ABC superfamily genes; out of 42 tested): 24; ABCB3 Expression Difference (ABCB3): 0.365; ABCB3 Treated vs. Untreated (ABCB3): DOWN; ABCG1 Treated vs. Untreated (ABCG1; [6]): DOWN; ABCC5 Treated vs. Untreated (ABCC5): DOWN; ABCB9 Treated vs. Untreated (ABCB9): DOWN; ABCD4 Treated vs. Untreated (ABCD4): DOWN; ABCE1 Treated vs. Untreated (ABCE1): DOWN; ABCB8 Treated vs. Untreated (ABCB8): DOWN
